Where two headings read alike, the source gives them in different places.
Legend:
[1] = target: SQR of 06STD024 (SDHC / altC) mitochondria (Zymoseptoria tritici, UniProt A0A1X7RQW2+F9X9V6+F9XH52+O42772); test: Succinate-quinone (SQR) SDHI sensitivity assay on purified mitochondria, 06STD024; assay type: biochemical; details: for RF (resistance factor), 06STD024 (SDHC / altC): IC50 ratio compared to IPO323 values; for IC50: mitochondria of field isolate 06STD024, mean of three ± SD
Description: (§1) Succinate-ubiquinone oxidoreductase (SQR) inhibition assays were performed on mitochondrial extracts from a panel of strains that were (i) either carrying a unique C-subunit encoding gene (ZtSDHC1, ZtSDHC1_A84I or Zt-SDHC3), or (ii) carrying two C-subunit encoding genes ZtSDHC1 and ZtSDHC3 (Table 1).
(§2) Biomass production, mitochondrial extraction and purification were performed as described in [14]. Succinate: ubiquinone/DCPIP sensitivity tests were performed as described in [14] with minor modification.

[2] = tested on: SQR (SDHC / altC) of IPO323 pTet::SDHC3 transformant, induced; test: Succinate-quinone (SQR) SDHI sensitivity assay on purified mitochondria, IPO323 pTet::SDHC3 induced; assay type: biochemical, Zymoseptoria tritici; details: for RF (resistance factor), pTet Induced (SDHC / altC): IC50 ratio compared to IPO323 values; for IC50: IPO323 pTet::SDHC3 transformant grown in the absence of doxycycline, mean of three ± SD
Description: as §1, §2

[3] = tested on: Zymoseptoria tritici field and genetically modified strains; test: Liquid culture assay for fungicide sensitivity determination; assay type: cell-based; details: liquid culture sensitivity, read-out: EC50 (nM) Mean
Description: Sensitivity towards commercial fungicides was determined for a set of 99 SHA-SDHI-naïve Z. tritici field isolates sampled in Europe between 2006 and 2009. The EC50 of these isolates was determined in liquid growth assays and the data obtained compared for each possible pair of SDHI fungicides (cross-resistance (XR) plots, Fig 1). […] Comparative succinate-quinone reductase (SQR) enzyme inhibition tests were performed with mitochondria extracted from a panel of SHA-SDHIs tolerant and sensitive isolates.
In order to characterize in more depth the mechanisms driving sensitivity differences across the isolates, a subset of eight isolates carrying the ZtSDHC3 gene was analyzed for their sensitivity to SDHIs, alt-SDHC expression and splicing patterns. Liquid culture growth sensitivity tests were performed to determine EC50s for this set of isolates towards a wide range of commercial and research SDHIs (S5 Table).
Pre-culture of the inoculum and fungicide sensitivity tests were performed following previously described procedures. Different ranges of inhibitor concentrations were used for population monitoring and for the detailed phenotyping of a selected set of individual field isolates and genetically modified strains. For fungicide sensitivity monitoring of European field populations, final inhibitors concentrations were between 100 mg.L^-1 and 0.0001 mg.L^-1 with uniform 10x dilution steps (7 inhibitor concentrations + DMSO control). For refined sensitivity analysis of a smaller panel of isolates final inhibitor concentrations ranged between 0.5 mM and 0.47 nM with uniform 4x dilution factor steps (11 inhibitor concentrations+ DMSO control).

[4] = target: WT-SQR (SDHC), IPO323 mitochondria (Zymoseptoria tritici, UniProt F9X9V6+F9XH52+O42772); test: Succinate-quinone (SQR) SDHI sensitivity assay on purified mitochondria, IPO323; assay type: biochemical; details: mitochondria of IPO323; mean of three determinations ± SD; read-out: Succinate-quinone IC50, IPO323 (SDHC)
Description: as §1
(§3) Biomass production, mitochondrial extraction and purification were performed as described in [14]. Succinate: ubiquinone/DCPIP sensitivity tests were performed as described in [14] with minor modification. The different mitochondrial suspensions were adjusted to similar initial velocity (1 OD595nm hour^-1) and inhibitor concentrations ranged between 0.047nM and 50μM with uniform 4x dilution steps (11 concentrations + DMSO control). Calculated absorbance slopes (OD/min) were used for IC50 calculations using GraphPad Prism 6.07 software non-linear curve fitting against log inhibitor concentrations.

[5] = target: C_A84I-SQR (SDHC_A84I), IPO323_Flu21 mitochondria (Zymoseptoria tritici, UniProt F9X9V6+F9XH52+O42772, A84I); test: Succinate-quinone (SQR) SDHI sensitivity assay on purified mitochondria, IPO323_Flu21; assay type: biochemical; details: for RF (resistance factor), IPO323_Flu21 (SDHC_A84I): IC50 ratio compared to IPO323 values; for IC50: mitochondria of UV mutant IPO323_Flu21, mean of three ± SD
Description: as §1, §3

[6] = target: SQR (SDHC) of D024 SDHC3 KO mitochondria (Zymoseptoria tritici, UniProt F9X9V6+F9XH52+O42772); test: Succinate-quinone (SQR) SDHI sensitivity assay on purified mitochondria, 06STD024 SDHC3 KO; assay type: biochemical; details: for RF (resistance factor), D024 SDHC3 KO (SDHC): IC50 ratio compared to IPO323 values; for IC50: mitochondria of 06STD024 ZtSDHC3 deletion mutant, mean of three ± SD
Description: as §1, §3

[7] = target: SQR (SDHC / altC) of IPO323 pTet::SDHC3 transformant, repressed (Zymoseptoria tritici, UniProt A0A1X7RQW2+F9X9V6+F9XH52+O42772); test: Succinate-quinone (SQR) SDHI sensitivity assay on purified mitochondria, IPO323 pTet::SDHC3 repressed; assay type: biochemical; details: for RF (resistance factor), pTet Repressed (SDHC / altC): IC50 ratio compared to IPO323 values; for IC50: IPO323 pTet::SDHC3 transformant grown in presence of 30 mg.L^-1 doxycycline, mean of three ± SD
Description: as §1, §2

[8] = target: altC-SQR (altC) of D024 SDHC1 KO mitochondria (Zymoseptoria tritici, UniProt A0A1X7RQW2+F9X9V6+O42772); test: Succinate-quinone (SQR) SDHI sensitivity assay on purified mitochondria, 06STD024 SDHC1 KO; assay type: biochemical; details: for RF (resistance factor), D024 SDHC1 KO (altC): IC50 ratio compared to IPO323 values; for IC50: mitochondria of 06STD024 ZtSDHC1 deletion mutant (pure altC-SQR), mean of three ± SD
Description: as §1, §2

SQR (SDHC) of D024 SDHC3 KO mitochondria, sequence (F9XH52 44-187): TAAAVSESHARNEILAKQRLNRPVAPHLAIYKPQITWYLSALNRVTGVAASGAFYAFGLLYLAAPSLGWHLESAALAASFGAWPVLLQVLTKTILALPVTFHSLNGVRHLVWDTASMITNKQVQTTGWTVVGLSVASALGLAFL
SQR (SDHC) of D024 SDHC3 KO mitochondria, sequence (O42772 19-297): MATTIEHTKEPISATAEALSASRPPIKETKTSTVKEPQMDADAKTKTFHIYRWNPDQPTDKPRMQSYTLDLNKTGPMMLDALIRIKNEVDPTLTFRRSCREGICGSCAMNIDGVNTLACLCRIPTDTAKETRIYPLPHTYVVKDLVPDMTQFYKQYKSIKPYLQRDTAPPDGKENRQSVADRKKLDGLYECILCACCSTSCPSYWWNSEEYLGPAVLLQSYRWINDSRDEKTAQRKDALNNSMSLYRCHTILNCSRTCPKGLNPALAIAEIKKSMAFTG
SQR (SDHC) of D024 SDHC3 KO mitochondria, sequence (F9X9V6 1-193): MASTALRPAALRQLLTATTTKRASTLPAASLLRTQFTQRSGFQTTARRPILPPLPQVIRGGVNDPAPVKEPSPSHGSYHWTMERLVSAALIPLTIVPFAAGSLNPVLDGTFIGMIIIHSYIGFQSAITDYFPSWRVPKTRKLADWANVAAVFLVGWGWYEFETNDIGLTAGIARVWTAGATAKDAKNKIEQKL
SQR (SDHC) of D024 SDHC3 KO mitochondria, sequence (F9WWR1 29-643 partner): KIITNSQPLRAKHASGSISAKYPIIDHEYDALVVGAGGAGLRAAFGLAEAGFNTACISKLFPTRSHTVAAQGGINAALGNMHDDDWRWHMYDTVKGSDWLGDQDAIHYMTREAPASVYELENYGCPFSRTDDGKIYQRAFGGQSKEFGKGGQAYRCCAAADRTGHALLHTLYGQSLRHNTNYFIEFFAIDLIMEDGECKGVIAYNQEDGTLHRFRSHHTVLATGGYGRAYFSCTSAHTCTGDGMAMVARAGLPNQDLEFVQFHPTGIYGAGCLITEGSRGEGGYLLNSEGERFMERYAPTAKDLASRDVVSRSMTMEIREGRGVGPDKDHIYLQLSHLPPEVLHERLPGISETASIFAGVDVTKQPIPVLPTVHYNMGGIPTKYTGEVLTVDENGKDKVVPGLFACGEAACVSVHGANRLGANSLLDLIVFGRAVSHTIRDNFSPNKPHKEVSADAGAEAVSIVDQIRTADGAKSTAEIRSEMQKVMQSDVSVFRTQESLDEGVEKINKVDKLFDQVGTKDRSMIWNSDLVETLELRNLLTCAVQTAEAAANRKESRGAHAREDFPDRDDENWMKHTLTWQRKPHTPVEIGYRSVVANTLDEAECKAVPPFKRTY
SQR (SDHC / altC) of IPO323 pTet::SDHC3 transformant, repressed, sequence (F9XH52 44-187): as the sequence (F9XH52 44-187) above
SQR (SDHC / altC) of IPO323 pTet::SDHC3 transformant, repressed, sequence (O42772 20-297): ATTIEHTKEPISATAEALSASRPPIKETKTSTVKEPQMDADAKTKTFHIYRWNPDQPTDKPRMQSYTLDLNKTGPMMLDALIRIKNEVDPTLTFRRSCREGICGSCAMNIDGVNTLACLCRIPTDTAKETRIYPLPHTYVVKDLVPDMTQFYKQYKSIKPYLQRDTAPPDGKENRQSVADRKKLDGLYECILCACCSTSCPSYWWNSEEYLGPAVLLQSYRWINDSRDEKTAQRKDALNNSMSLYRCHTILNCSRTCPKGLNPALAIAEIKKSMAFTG
SQR (SDHC / altC) of IPO323 pTet::SDHC3 transformant, repressed, sequence (F9X9V6 1-193): as the sequence (F9X9V6 1-193) above
SQR (SDHC / altC) of IPO323 pTet::SDHC3 transformant, repressed, sequence (A0A1X7RQW2 36-181): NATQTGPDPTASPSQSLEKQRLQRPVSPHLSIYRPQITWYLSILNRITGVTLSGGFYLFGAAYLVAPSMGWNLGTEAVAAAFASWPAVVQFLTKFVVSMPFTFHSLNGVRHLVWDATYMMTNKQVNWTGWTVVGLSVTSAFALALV
SQR (SDHC / altC) of IPO323 pTet::SDHC3 transformant, repressed, sequence (F9WWR1 41-643 partner): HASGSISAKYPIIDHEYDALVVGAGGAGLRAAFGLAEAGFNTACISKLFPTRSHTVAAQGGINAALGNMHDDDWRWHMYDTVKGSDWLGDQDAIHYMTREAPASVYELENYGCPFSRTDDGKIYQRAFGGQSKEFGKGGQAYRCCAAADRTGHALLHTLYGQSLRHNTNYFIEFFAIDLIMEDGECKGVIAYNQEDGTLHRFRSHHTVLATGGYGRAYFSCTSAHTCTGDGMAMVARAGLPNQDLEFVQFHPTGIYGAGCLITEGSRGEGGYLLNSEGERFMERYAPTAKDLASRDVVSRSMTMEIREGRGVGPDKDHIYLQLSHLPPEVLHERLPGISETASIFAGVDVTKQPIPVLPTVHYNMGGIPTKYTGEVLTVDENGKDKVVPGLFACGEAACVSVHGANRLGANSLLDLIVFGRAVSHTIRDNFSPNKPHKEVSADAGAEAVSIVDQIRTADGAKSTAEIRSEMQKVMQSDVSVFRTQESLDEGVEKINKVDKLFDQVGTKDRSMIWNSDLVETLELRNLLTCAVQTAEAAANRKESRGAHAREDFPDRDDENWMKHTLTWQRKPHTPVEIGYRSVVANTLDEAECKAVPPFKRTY
C_A84I-SQR (SDHC_A84I), IPO323_Flu21 mitochondria, sequence (F9XH52 44-187, stated change not applied): as the sequence (F9XH52 44-187) above
C_A84I-SQR (SDHC_A84I), IPO323_Flu21 mitochondria, sequence (O42772 19-297, stated change not applied): as the sequence (O42772 19-297) above
C_A84I-SQR (SDHC_A84I), IPO323_Flu21 mitochondria, sequence (F9X9V6 whole entry, stated change not applied): as the sequence (F9X9V6 1-193) above
C_A84I-SQR (SDHC_A84I), IPO323_Flu21 mitochondria, sequence (F9WWR1 29-643 partner): as the sequence (F9WWR1 29-643 partner) above

| Structure (SMILES) | RF (resistance factor), 06STD024 (SDHC / altC) [1] | IC50 [1] [nM] | RF (resistance factor), pTet Induced (SDHC / altC) [2] | IC50 [2] [nM] | EC50 ([3]; strain 06STD024) [nM] | EC50 ([3]; strain 07STGB009) [nM] | EC50 ([3]; strain 09STD041) [nM] | EC50 ([3]; strain 09STD053) [nM] | EC50 ([3]; strain 09STF011) [nM] | EC50 ([3]; strain 09STF037) [nM] | EC50 ([3]; strain 09STF112) [nM] | EC50 ([3]; strain 09STIR20.3) [nM] | EC50 ([3]; strain Flu21 (SDHC1_A84I)) [nM] | EC50 ([3]; strain IPO323) [nM] | EC50 ([3]; strain IPO94269) [nM] | EC50 ([3]; strain KO_SDHC1_T1) [nM] | EC50 ([3]; strain KO_SDHC1_T3) [nM] | EC50 ([3]; strain KO_SDHC3_T4) [nM] | EC50 ([3]; strain KO_SDHC3_T13) [nM] | EC50 ([3]; strain pTet::SDHC3_I78A_T1) [nM] | further results |
| --- | --- | --- | --- | --- | --- | --- | --- | --- | --- | --- | --- | --- | --- | --- | --- | --- | --- | --- | --- | --- | --- |
| Cn1cc(C(=O)Nc2ccccc2-c2cc(F)c(F)c(F)c2)c(C(F)F)n1 [Fluxapyroxad] | 0.8 | 3.5 ± 0.3 | 0.8 | 3.3 ± 0.6 | 83.2 | 72.2 | 142 | 132 | 119 | 110 | 152 | 295 | 818 | 102 | 121 | 438 | 361 | 216 | 144 | 115 | EC50 ([3]; strain pTet::SDHC3_I78A_T5): 265 nM; EC50 ([3]; strain pTet::SDHC3_I78A_T15): 145 nM; EC50 ([3]; strain pTet::SDHC3_I78A_T35): 79.5 nM; EC50 ([3]; strain pTet::SDHC3_T1): 148 nM; EC50 ([3]; strain pTet::SDHC3_T2): 129 nM; EC50 ([3]; strain pTet::SDHC3_T3): 102 nM; EC50 ([3]; strain pTet::SDHC3_T7): 197 nM; IC50 [4]: 4.3 ± 1.1 nM; RF (resistance factor), IPO323_Flu21 (SDHC_A84I) [5]: 1.2; IC50 [5]: 5.1 ± 0.7 nM; RF (resistance factor), D024 SDHC3 KO (SDHC) [6]: 0.8; IC50 [6]: 3.3 ± 0.8 nM; RF (resistance factor), pTet Repressed (SDHC / altC) [7]: 1.1; IC50 [7]: 4.5 ± 1 nM; RF (resistance factor), D024 SDHC1 KO (altC) [8]: 0.7; IC50 [8]: 3.1 ± 0.4 nM |
| Cn1cc(C(=O)Nc2cccc3c2[C@@H]2CC[C@H]3C2=C(Cl)Cl)c(C(F)F)n1 (racemic) [Benzovindiflupyr] | 0.8 | 0.5 ± 0.17 | 0.8 | 0.5 ± 0.09 | 17 | 15 | 54 | 88 | 96 | 54 | 204 | 147 | 927 | 39 | 108 | 59 | 40 | 93 | 90 | 28 | EC50 ([3]; strain pTet::SDHC3_I78A_T5): 87 nM; EC50 ([3]; strain pTet::SDHC3_I78A_T15): 47 nM; EC50 ([3]; strain pTet::SDHC3_I78A_T35): 20 nM; EC50 ([3]; strain pTet::SDHC3_T1): 40 nM; EC50 ([3]; strain pTet::SDHC3_T2): 44 nM; EC50 ([3]; strain pTet::SDHC3_T3): 30 nM; EC50 ([3]; strain pTet::SDHC3_T7): 50 nM; IC50 [4]: 0.7 ± 0.2 nM; RF (resistance factor), IPO323_Flu21 (SDHC_A84I) [5]: 1.4; IC50 [5]: 1 ± 0.2 nM; RF (resistance factor), D024 SDHC3 KO (SDHC) [6]: 0.8; IC50 [6]: 0.6 ± 0.11 nM; RF (resistance factor), pTet Repressed (SDHC / altC) [7]: 0.8; IC50 [7]: 0.5 ± 0.03 nM; RF (resistance factor), D024 SDHC1 KO (altC) [8]: 0.9; IC50 [8]: 0.6 ± 0.05 nM |
